Test [1] has as its target GABAa receptor (benzodiazepine receptor). Kind of test: GABAa receptor binding assay ([3H]-Flumazenil (RO15-1788) displacement, rat cortical tissue). The note with it: rat cortical tissue homogenate; 0.5 nM 3H-RO15-1788; 30 min at 4° C., pH 7.4; nonspecific: 1.0 mM diazepam. The method, then: The pharmaceutical utility of compounds of this invention are indicated by the following assay for GABAa receptor activity.
Assays are carried out as described in Thomas and Tallman (J. Bio. Chem. 156: 9838-9842, J. Neurosci. 3:433-440, 1983). Rat cortical tissue is dissected and homogenized in 25 volumes (w/v) of 0.05M Tris HCl buffer (pH 7.4 at 4° C.). The tissue homogenate is centrifuged in the cold (4°) at 20,000×g for 20'. The supernatant is decanted and the pellet is rehomogenized in the same volume of buffer and again centrifuged at 20,000×g. The supernatant is decanted and the pellet is frozen at -20° C. overnight. The pellet is then thawed and rehomogenized in 25 volume (original wt/vol) of buffer and the procedure i carried out twice. The pellet is finally resuspended in 50 volumes (w/vol of 0.05M Tris HCl buffer (pH 7.4 at […]).
Incubations contain […] of tissue homogenate, […] of radioligand 0.5 nM (^3 H-RO15-1788 [^3 H-Flumazenil] specific activity 80 Ci/mmol), drug or blocker and buffer to a total volume of […]. Incubations are carried for 30 min at 4° C. then are rapidly filtered through GFB filters to separate free and bound ligand. Filters are washed twice and fresh 0.05M Tris HCl buffer (pH 7.4 at 4° C.) and counted in a liquid scintillation counter. 1.0 mM diazepam is added to some tubes to determine nonspecific binding. Data are collected in triplicate determinations, averaged and % inhibition of total specific binding is calculated. Total Specific Binding=Total-Nonspecific. In some cases, the amounts of unlabeled drugs is varied and total displacement curves of binding are carried out. Data are converted to a form for the calculation of IC50 and Hill Coefficient (nH).

For test [2], the system named is GABA receptor. The note with it: stereoisomers of bicuculline; Tallman et al., 1978, Nature, 274: 383-85; cited from earlier work.

Structures are written as SMILES.

As to `CCOc1ccc(-n2c(=O)c3c[nH]c4cccnc4n-3c2=O)cc1` [Compound 8, 2-(4-Ethoxyphenyl)-imidazo[1,5,a]pyrido[3,2-e]pyrazine-2,3(2H,5H)-dione], the IC50 in test [1] was determined as 20 nM.

As to `O=c1c2c[nH]c3cccnc3n-2c(=O)n1-c1ccccc1` [Compound 1, 2-Phenyl-imidazo[1,5,a]pyrido[3,2-e]pyrazine-1,3(2H,5H)-dione], the IC50 in test [1] is 10 nM.

In test [1], `COc1ccc(-n2c(=O)c3c[nH]c4cccnc4n-3c2=O)cc1` [Compound 5, 2-(4-Methoxyphenyl)-imidazo[1,5,a]pyrido[3,2-e]pyrazine-2,3(2H,5H)-dione] gave an IC50 of 9 nM.

With `CN1CCc2cc3c(cc2C1C1OC(=O)c2c1ccc1c2OCO1)OCO3` (single isomer, unassigned; (-)) [(-) bicuculline], the “Block of enhancement of benzodiazepine binding by GABA agonists” value in test [2] is listed as “much less active”.

Consider `CN1CCc2cc3c(cc2C1C1OC(=O)c2c1ccc1c2OCO1)OCO3` (single isomer, unassigned; (+)) [(+) bicuculline], for which the “Block of enhancement of benzodiazepine binding by GABA agonists” value in test [2] is on record as “blocked”.

These data come from patent US5266698A, “Certain aryl and cycloalkyl fused imidazopyrazinediones; a new class of GABA brain receptor ligands” (Neurogen Corporation, priority 1992, dated 1993).
